Measured values from the NIST ThermoML archive (doi:10.1016/j.fluid.2018.04.012).

Assay: xn = mol fraction of the nth substance listed
Settings: Liquid, Vibrating tube method

CC(C)OC(C)C [diisopropyl ether] + CC(C)O
mass density [kg/m3]
Settings	x2 = 0.1503	x2 = 0.2979	x2 = 0.4228	x2 = 0.5	x2 = 0.6737	x2 = 0.8483
333.15 K, 130000 kPa	–	–	–	807.2	815.2	824.7
333.15 K, 140000 kPa	799.3	804.1	808.6	811.9	819.7	829.1
353.19 K, 1000 kPa	665.8	673.2	680.7	685.4	698.3	713.7
353.19 K, 5000 kPa	673.7	680.7	687.7	692.4	704.7	719.5
353.19 K, 10000 kPa	682.3	689.1	695.5	700.2	711.9	726.1
353.19 K, 15000 kPa	690	696.5	702.7	707.2	718.5	732.2
353.19 K, 20000 kPa	696.9	703.2	709.2	713.6	724.5	737.7
353.19 K, 25000 kPa	703.3	709.3	715.3	719.5	730.1	742.9
353.19 K, 30000 kPa	709.2	715.1	720.9	725	735.3	747.8
353.19 K, 35000 kPa	714.7	720.5	726.2	730.1	740.2	752.4
353.19 K, 40000 kPa	719.8	725.4	731.2	734.9	744.8	756.7
353.19 K, 45000 kPa	724.6	730.2	735.9	739.5	749.2	760.8
353.19 K, 50000 kPa	729.4	734.8	740.3	743.9	753.5	764.9
353.19 K, 55000 kPa	733.7	739	744.5	748	757.3	768.6
353.19 K, 60000 kPa	737.8	743.1	748.6	752	761.1	772.2
353.19 K, 65000 kPa	741.9	747.1	752.5	755.8	764.9	775.8
353.19 K, 70000 kPa	745.7	750.9	756.2	759.5	768.4	779.2
353.19 K, 80000 kPa	752.9	758	763.2	766.3	775	785.5
353.19 K, 90000 kPa	759.7	764.7	769.7	772.8	781.4	791.6
353.19 K, 100000 kPa	766	770.8	775.8	778.9	787.2	797.2
353.19 K, 110000 kPa	772	776.8	781.5	784.7	792.9	802.7
353.19 K, 120000 kPa	777.6	782.3	786.9	790.1	798.1	807.7
353.19 K, 130000 kPa	782.9	787.6	792.1	795.2	803.1	812.6
353.19 K, 140000 kPa	788.1	792.7	797	800.2	808	817.4
373.24 K, 1000 kPa	641	648.3	655.6	660.4	673.6	689.6
373.24 K, 5000 kPa	650.7	657.5	664.2	669	681.4	696.7
373.24 K, 10000 kPa	661	667.6	673.7	678.3	690.1	704.5
373.24 K, 15000 kPa	670	676.2	682.1	686.6	697.9	711.6
373.24 K, 20000 kPa	678.1	684.1	689.7	694	704.8	718
373.24 K, 25000 kPa	685.3	691.1	696.6	700.8	711.2	724
373.24 K, 30000 kPa	692	697.6	703	707	717.1	729.5
373.24 K, 35000 kPa	698.1	703.6	708.9	712.8	722.6	734.7
373.24 K, 40000 kPa	703.9	709.2	714.5	718.1	727.8	739.6
373.24 K, 45000 kPa	709.2	714.5	719.6	723.3	732.7	744.3
373.24 K, 50000 kPa	714.2	719.3	724.5	728	737.2	748.6
373.24 K, 55000 kPa	719.1	724.1	729.2	732.6	741.7	752.7
373.24 K, 60000 kPa	723.5	728.5	733.6	736.9	745.8	756.7
373.24 K, 65000 kPa	727.8	732.8	737.8	741.1	749.8	760.5
373.24 K, 70000 kPa	732	736.8	741.8	745	753.6	764.2
373.24 K, 80000 kPa	739.7	744.5	749.3	752.6	760.9	771.2
373.24 K, 90000 kPa	747	751.7	756.3	759.4	767.7	777.7
373.24 K, 100000 kPa	753.7	758.3	762.8	765.9	774	783.8
373.24 K, 110000 kPa	760	764.5	768.9	772	779.9	789.5
373.24 K, 120000 kPa	765.9	770.4	774.7	777.8	785.5	795
373.24 K, 130000 kPa	771.6	776	780.2	783.3	790.9	800.2
373.24 K, 140000 kPa	776.9	781.3	785.3	788.5	796	805.1
393.28 K, 1000 kPa	614.1	620.6	627.9	632.9	645.9	662.5
393.28 K, 5000 kPa	626.4	632.4	638.9	643.7	655.9	671.3
393.28 K, 10000 kPa	639	644.7	650.5	655.2	666.5	680.9
393.28 K, 15000 kPa	649.7	655.1	660.6	665.1	675.7	689.4
393.28 K, 20000 kPa	658.9	664.1	669.5	673.7	683.9	696.9
393.28 K, 25000 kPa	667.1	672.2	677.4	681.4	691.2	703.8
393.28 K, 30000 kPa	674.7	679.5	684.6	688.5	698	710.1
393.28 K, 35000 kPa	681.5	686.3	691.3	695.1	704.2	716
393.28 K, 40000 kPa	687.8	692.5	697.4	701	710.1	721.5
393.28 K, 45000 kPa	693.6	698.2	703.2	706.6	715.4	726.6
393.28 K, 50000 kPa	699.1	703.7	708.6	711.8	720.5	731.5
393.28 K, 55000 kPa	704.5	708.9	713.6	716.9	725.4	736.2
393.28 K, 60000 kPa	709.2	713.7	718.4	721.6	729.9	740.5
393.28 K, 65000 kPa	713.9	718.3	723	726	734.3	744.7
393.28 K, 70000 kPa	718.4	722.8	727.3	730.4	738.5	748.8
393.28 K, 80000 kPa	726.7	731	735.5	738.5	746.4	756.3
393.28 K, 90000 kPa	734.4	738.6	742.9	746.1	753.7	763.4
393.28 K, 100000 kPa	741.5	745.6	749.9	752.9	760.4	769.9
393.28 K, 110000 kPa	748.3	752.4	756.4	759.5	766.8	776.1
393.28 K, 120000 kPa	754.5	758.5	762.5	765.5	772.8	781.8
393.28 K, 130000 kPa	760.4	764.4	768.3	771.3	778.4	787.4
393.28 K, 140000 kPa	766.1	770	773.8	776.8	783.9	792.7
